Patent publication US20070048225A1, “NK3 receptor in vivo assay” (priority 2005, published 2007)
Numbered stars: 1 amine (or outer) side, 2 acyl side, 3 side chain; on linkers, the order of the positions; unused ones are H or OH. Square brackets hold non-standard residues; d marks the D form. Peptide text beside a SMILES is read from it. NMeF = CN[C@@H](Cc1ccccc1)C(=O)O; Suc = O=C(CCC(=O)[*:2])[*:1]

Assays:
NK3 receptor = experiment: Senktide-induced locomotor activity in gerbils (total distance traveled); assay type: in vivo, Mongolian gerbil; settings: senktide 0.01, 0.03 or 0.1 nM/5 μL ICV tested, effect at 0.1 nM/5 μL, activity measured for 90 minutes, FIG. 1
Protocol: Male and female Mongolian gerbils [Biological Research Laboratories, 4414 Füllinsdorf, Switzerland] weighing between 40-70 g were used. Gerbils were housed four per cage for approximately four to seven days following arrival in the laboratory colony. The gerbils had ad libitum access to tap water and lab chow in the home cage. The animal quarters were maintained on a 12:12 hour light-dark cycle with light onset at 6 a.m. and with both temperature (21-23° C.) and humidity (55-65%) regulated. All testing was conducted during the light phase of the light-dark cycle. All procedures described here received prior approval from the City of Basel Cantonal Animal Protection Committee based on adherence to federal and local regulations. The experiments were carried out in an animal colony supervised by the veterinary staff of Hoffmann-La Roche Ltd.
The antagonists were prepared immediately prior to use (vehicle 0.3% Tween-80/saline). […]
The incision was closed using a clip suture and gerbils were placed into perspex boxes on recovery of their righting reflex and then placed into locomotor activity boxes (Accuscan instruments, USA). Activity was then measured automatically for a period of 90 minutes.
Data were analysed using a One way anova followed by Dunnet multiple comparison test or t-test (one-tailed) where appropriate (Statistica, Statsoft).

NK3-receptor = target: T1, NK3-receptor (Homo sapiens, UniProt P29371); settings: double blind placebo controlled; Meltzer et al. 2004; cited from earlier work
T1 construct: active in a double blind placebo controlled clinical trial in schizophrenia patients; host or cells: schizophrenia patients (Meltzer et al., Am J Psych 161:975-84, 2004)
T1 sequence (P29371 1-465): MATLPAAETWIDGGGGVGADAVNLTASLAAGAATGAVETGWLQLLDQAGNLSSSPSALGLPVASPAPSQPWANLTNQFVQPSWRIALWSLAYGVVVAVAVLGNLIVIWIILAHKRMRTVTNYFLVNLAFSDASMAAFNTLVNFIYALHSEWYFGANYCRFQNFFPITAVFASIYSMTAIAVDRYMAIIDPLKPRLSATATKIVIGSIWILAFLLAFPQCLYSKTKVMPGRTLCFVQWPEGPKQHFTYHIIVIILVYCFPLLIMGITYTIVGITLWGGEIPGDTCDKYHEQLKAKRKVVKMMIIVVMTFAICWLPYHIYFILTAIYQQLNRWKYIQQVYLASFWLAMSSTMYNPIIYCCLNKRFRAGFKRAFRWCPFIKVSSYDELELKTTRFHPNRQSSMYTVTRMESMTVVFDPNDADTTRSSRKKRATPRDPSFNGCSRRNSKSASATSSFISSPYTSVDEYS

SMILES | total distance traveled (locomotor activity) (NK3 receptor) | activity in clinical trial in schizophrenia patients (NK3-receptor)
CSCC[C@H](NC(=O)[C@H](CC(C)C)NC(=O)CNC(=O)[C@H](Cc1ccccc1)N(C)C(=O)[C@H](Cc1ccccc1)NC(=O)[C@H](CC(=O)O)NC(=O)CCC(=O)O)C(N)=O [Senktide, N-(3-carboxy-1-oxopropyl)-L-α-aspartyl-L-phenylalanyl-N-methyl-L-phenylalanylglycyl-L-leucyl-L-methioninamide] (Suc-DF[NMeF]GLM-NH2) | significant increase | –
CC(=O)N(C)C1(c2ccccc2)CCN(CCC[C@]2(c3ccc(Cl)c(Cl)c3)CCCN(C(=O)c3ccccc3)C2)CC1 [SR142801] | – | active
